The record followed here is BindingDB's records for doi:10.1074/jbc.271.42.26315 (Bayer, 1996).

Values joined by “and” are separate entries in the source; they are usually repeats but may differ in a detail not shown here. Equal values may be shown once. Peptide text beside a SMILES is read from it.

Experiment [1] concerns the target T1, Neuropeptide Y receptor type 5 (Rattus norvegicus, UniProt Q63634).
T1 sequence (Q63634 whole entry): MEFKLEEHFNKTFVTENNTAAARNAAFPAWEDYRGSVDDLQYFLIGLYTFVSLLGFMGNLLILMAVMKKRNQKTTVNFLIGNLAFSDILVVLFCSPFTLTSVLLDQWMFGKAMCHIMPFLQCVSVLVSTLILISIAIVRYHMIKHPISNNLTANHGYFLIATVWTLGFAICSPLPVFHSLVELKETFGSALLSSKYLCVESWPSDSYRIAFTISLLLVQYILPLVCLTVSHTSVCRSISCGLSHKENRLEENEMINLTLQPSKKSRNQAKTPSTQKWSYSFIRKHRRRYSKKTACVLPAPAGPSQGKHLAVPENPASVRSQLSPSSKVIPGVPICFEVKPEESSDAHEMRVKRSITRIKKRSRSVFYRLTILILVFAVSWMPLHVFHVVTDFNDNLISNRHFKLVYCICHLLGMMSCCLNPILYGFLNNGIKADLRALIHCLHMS

Experiment [2] deals with T2, Neuropeptide Y receptor type 5 (Homo sapiens, UniProt Q15761).
T2 sequence (Q15761 whole entry): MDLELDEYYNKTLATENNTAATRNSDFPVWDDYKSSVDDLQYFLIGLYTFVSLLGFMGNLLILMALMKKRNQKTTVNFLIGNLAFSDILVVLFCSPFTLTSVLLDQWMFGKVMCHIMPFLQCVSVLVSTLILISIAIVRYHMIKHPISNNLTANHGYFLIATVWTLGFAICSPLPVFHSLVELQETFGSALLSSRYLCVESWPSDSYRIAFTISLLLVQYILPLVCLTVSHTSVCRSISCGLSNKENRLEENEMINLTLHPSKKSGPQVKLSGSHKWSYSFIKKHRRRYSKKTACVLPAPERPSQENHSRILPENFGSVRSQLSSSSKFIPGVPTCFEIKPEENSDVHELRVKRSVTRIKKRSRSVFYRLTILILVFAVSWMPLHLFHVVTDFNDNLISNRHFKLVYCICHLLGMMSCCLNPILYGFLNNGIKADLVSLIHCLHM

`N=C(N)NCCCC(NC(=O)C(c1ccccc1)c1ccccc1)C(=O)NCc1ccc(O)cc1` (stereo unspecified) [NSC_5311023] returned a Ki in experiment [1] of 1000 nM.

Consider `CC(C)C[C@H](NC(=O)[C@H](CO)NC(=O)[C@H](C)NC(=O)[C@H](Cc1ccc(O)cc1)NC(=O)[C@H](Cc1ccc(O)cc1)NC(=O)[C@H](CCCNC(=N)N)NC(=O)[C@H](CO)NC(=O)[C@H](CC(C)C)NC(=O)[C@H](CCC(=O)O)NC(=O)[C@H](CCC(=O)O)NC(=O)[C@@H]1CCCN1C(=O)[C@@H](N)CO)C(=O)N[C@@H](CCCNC(=N)N)C(=O)N[C@@H](Cc1c[nH]cn1)C(=O)N[C@@H](Cc1ccc(O)cc1)C(=O)N[C@@H](CC(C)C)C(=O)N[C@@H](CC(N)=O)C(=O)N[C@@H](CC(C)C)C(=O)N[C@H](C(=O)N[C@H](C(=O)N[C@@H](CCCNC(=N)N)C(=O)N[C@@H](CCC(N)=O)C(=O)N[C@@H](CCCNC(=N)N)C(=O)N[C@@H](Cc1ccc(O)cc1)C(N)=O)[C@@H](C)O)C(C)C` [PYY 3-36, rat] (H-SPEELSRYYASLRHYLNLVTRQRY-NH2), for which the affinity in experiment [2] corresponds to a Ki of 10 nM.

Consider `CC[C@H](C)[C@H](NC(=O)[C@H](Cc1ccc(O)cc1)NC(=O)[C@H](CCCNC(=N)N)NC(=O)[C@H](CCCNC(=N)N)NC(=O)[C@H](CC(C)C)NC(=O)[C@H](CCC(N)=O)NC(=O)[C@@H](NC(=O)[C@H](CCC(=O)O)NC(=O)[C@H](Cc1ccc(O)cc1)NC(=O)[C@H](CCC(N)=O)NC(=O)[C@H](C)NC(=O)[C@H](CCCNC(=N)N)NC(=O)[C@H](CCC(N)=O)NC(=O)[C@H](CCC(=O)O)NC(=O)[C@H](Cc1c[nH]cn1)NC(=O)[C@@H](NC(=O)[C@H](C)NC(=O)[C@H](Cc1ccc(O)cc1)NC(=O)[C@H](CC(=O)O)NC(=O)CNC(=O)[C@@H]1CCCN1C(=O)[C@H](Cc1ccc(O)cc1)NC(=O)[C@H](CCSC)NC(=O)[C@@H]1CCCN1C(=O)[C@H](CCC(=O)O)NC(=O)[C@H](CC(C)C)NC(=O)[C@@H]1CCCN1C(=O)[C@H](C)N)[C@@H](C)O)[C@@H](C)O)C(=O)N[C@@H](CC(N)=O)C(=O)N[C@H](C(=O)N[C@@H](CC(C)C)C(=O)N[C@H](C(=O)N[C@@H](CCCNC(=N)N)C(=O)N1CCC[C@H]1C(=O)N[C@@H](CCCNC(=N)N)C(=O)N[C@@H](Cc1ccc(O)cc1)C(N)=O)[C@@H](C)O)[C@@H](C)O` [NSC_41735], for which the Ki is 436 nM in experiment [2]; 62 nM and 296 nM in experiment [1].

Regarding `CC[C@H](C)[C@H](NC(=O)[C@H](Cc1ccc(O)cc1)NC(=O)[C@H](Cc1cnc[nH]1)NC(=O)[C@H](CCCN=C(N)N)NC(=O)[C@H](CC(C)C)NC(=O)[C@H](C)NC(=O)[C@@H](N)CO)C(=O)N[C@@H](CC(N)=O)C(=O)N[C@@H](CC(C)C)C(=O)N[C@H](C(=O)N[C@H](C(=O)N[C@@H](CCCN=C(N)N)C(=O)N[C@@H](CCC(N)=O)C(=O)N[C@@H](CCCN=C(N)N)C(=O)N[C@@H](Cc1ccc(O)cc1)C(N)=O)[C@@H](C)O)[C@@H](C)CC` [NPY22-36, rat, human], the Ki in experiment [2] and in experiment [1] was 1000 nM each time.

For orientation: Ki means the dissociation constant of the complex between target and ligand, obtained from inhibition or displacement. Read a low Ki as a stronger hold on the target.
